Experimental data reported in EP0115142B1, “Chroman compounds” (priority 1982, dated 1984).
Where a name gives a salt, the structure may show the parent alone. Marks after values point to notes of the source that are not given here.

Assays:
[1] = tested on: Male Sprague-Dawley (HLA) rats; experiment: Clonidine hypoactivity (CH) test; type: in vivo
Method: The suppression can be prevented by administration of an alpha2-antagonist as described by J. Malick et al. in Federation Proceedings, Vol. 40, page 244 (1981), a publication of the Federation of the American Societies of Experimental Biology. Male Sprague-Dawley (HLA) rats, weighing 140 to 180 g, were used throughout these studies. Spontaneous locomotor activity was measured in Animex activity monitors supplied by Columbus Instruments, Columbus, Ohio; groups of three animals were placed in a chamber of clear "Plexiglas", 26.5 x 26.5 x 15 cm for the test. ("Plexiglas" is a trademark of Rohm & Haas Co., Philadelphia, Pennsylvania, USA, for thermoplastic polymethyl methacrylate type polymers and plastic sheets). All animals received two injections prior to testing according to the following paradigm: vehiclec (HPMC) or antagonist was administered subcutaneously 30 minutes prior to intraperitoneal administration of either HPMC or clonidine. […] Animals were placed into the motor activity chambers as soon as possible after the second injection and total activity counts were recorded for 20 minutes. Five groups of 3 rats each were used for each dose of drug or control.

locus coeruleus = experiment: Locus coeruleus test (single unit firing, clonidine reversal); type: in vivo, Male Sprague-Dawley rats; settings: anesthetized rats; for clonidine required to re-suppress firing: after firing was reinstated by the test agent, i.v.; for dose that reinstated firing: i.v. infusion after clonidine 10 micrograms/kg i.v. suppressed firing
Method: Locus Coeruleus Test: The locus coeruleus test for alpha2-antagonist activity is predictive of anti- depressant activity as described by G. Engberg et al. in Communications in Psychopharmacology, Vol. 4, pages 233-239 (1980). The alphas-antagonistic properties of a test agent are determined as follows: Male Sprague-Dawley rats (280-320 g) are anesthetized with sodium pentobarbitol (60 mg/kg of body weight, i.p.) and placed in a stereotaxic instrument to allow precise location of the electrode in the locus coeruleus. Extracellular single unit activity is recorded from the locus coeruleus using stainless steel or tungsten microelectrodes (2-5 megohm impedance). Extracellular potentials are counted during successive 10 second intervals and recorded on a digital counter. The baseline firing rate of each neuron is determined for 3 to 5 minutes before drug administration. Drugs are injected intravenously in a volume of 0.1 ml; data are collected for 2 to 3 minutes between multiple drug injections. The ability of a test agent to reverse the suppressant effects of clonidine, and the total cumulative dose of clonidine required to override the test agent, are indicative of alpha2-antagonistic properties. In this test, 10 micrograms/kg of body weight of clonidine were administered by infusion intravenously to suppress firing.

mouse = experiment: Mouse learned helplessness swimming test (MLHS); type: in vivo; settings: one hour before test, time in tonic immobility
Method: During testing, a mouse is gently placed in the water and tested for a total of 6 minutes as follows: during the first 2 minutes the animal quickly "learns" there is no escape and spends the vast majority of the last 4 minutes floating (tonic immobility). Nothing is recorded during the first 2 minutes (learning period) but the time in seconds spent in tonic immobility during the last 4 minutes of the session is recorded. […] Control (vehicle-treated) groups are run each day and drug-treated groups are compared to these via a Student's t-test.

DBA-2 mice = experiment: Audiogenic seizure (AS): reversal of clonidine protection; type: in vivo; settings: for Minimal effective doses (MED) AS (i.p.): one hour before clonidine 0.4 mg/kg i.p., sound 30 minutes later, mice
Source text: Audiogenic Seizure (AS): Sound-produced seizures in mice are blocked by clonidine, an alpha2- agonist, and such a model may be used to measure the activity of a particular compound as an alpha2- antagonist, specifically as it decreases clonidine activity. The activity of clonidine in this regard and its relationship to alpha2-receptors is described by R. Horton et al. in the Journal of Pharmacology and Experimental Therapeutics, Vol. 214, No. 2, pages 437-442 (1980). DBA-2 mice (20-22 days of age; 8 to 12 g) are used in these studies. Mice are tested individually in a glass bell jar (112 inches high and 12 inches in diameter) which is placed in a sound-attenuated chamber. An electric bell is used to generate a noise level of 116-118 decibels. Mice are allowed to acclimate to the chamber for 30 seconds and are then exposed to the sound for 60 seconds. The auditory stimulation causes a convulsive episode characterized by wild running, clonus, tonus and death. […] Thus, the test compound is dissolved in a hydroxypropylmethylcellulose (HPMC) vehicle consisting of 0.1% Tween° 80 and 0.5% hydroxypropylmethylcellulose in an 0.9% by weight sodium chloride aqueous solution and injected intraperitoneally (i.p.) into the mouse. (Tween^O is a registered trademark of ICI Americas Inc., Wilmington, Delaware, USA, for emulsifiers, wetting and dispersing agents. Tween@ is polyoxyethylene sorbitan mono-oleate). After one hour, the mouse is challenged with clonidine intraperitoneally at 0.4 mg/kg of body weight. After a further 30 minutes, the mouse is subjected to a tone from a high intensity bell and the mouse is observed for seizure activity. The activity is scored on the basis of whether clonic and/or tonic seizures occur.

[2] = target: T1, alpha2 binding site in human platelets (Homo sapiens, UniProt P08913); experiment: Tritiated yohimbine binding assay
T1 construct: from tissue; host or cells: human platelets (washed and disrupted membrane preparation)
T1 sequence (P08913 1-465): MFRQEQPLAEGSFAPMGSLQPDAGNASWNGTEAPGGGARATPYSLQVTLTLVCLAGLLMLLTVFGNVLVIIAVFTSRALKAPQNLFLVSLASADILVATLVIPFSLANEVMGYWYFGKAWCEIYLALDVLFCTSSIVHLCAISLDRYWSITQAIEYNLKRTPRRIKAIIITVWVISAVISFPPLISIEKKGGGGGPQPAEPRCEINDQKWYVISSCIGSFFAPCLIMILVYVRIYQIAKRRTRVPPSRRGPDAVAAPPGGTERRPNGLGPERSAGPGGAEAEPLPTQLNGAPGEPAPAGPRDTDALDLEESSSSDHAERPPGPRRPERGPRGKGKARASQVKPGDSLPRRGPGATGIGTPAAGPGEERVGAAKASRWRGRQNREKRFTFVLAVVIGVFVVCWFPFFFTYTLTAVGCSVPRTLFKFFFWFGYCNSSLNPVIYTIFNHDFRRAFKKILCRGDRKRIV
Method: The test is conducted as described by M. Daiguji et al. in Life Sciences, Vol. 28, pages 2705-2717 (1981). Platelets are washed and disrupted as described in the Daiguji article. The amount of platelet used per assay varies between 0.2 to 1.5 mg of protein. […] For the determination of non-specific binding, 20 microliters of 10 millimolar norepinephrine is used. The incubation is conducted at 25°C for 60 minutes, after which the membranes are filtered under vacuum on a GF/B filter. The filters are then counted in a scintillation counter. […] It is known that if an alpha2-agonist or alpha2-antagonist binds to alpha2 sites, such will be displaced more easily by a compound which is also of the same type, i.e., an agonist or antagonist, respectively.

## c1ccc2c(c1)CCC(C1=NCCN1)O2 (centres unmarked) [Example 1c, 2-(2-Imidazolin-2-yl)chroman]
[1]; rat, in vivo
  Minimal effective doses (MED) CH (s.c.): 0.3 mg/kg of body weight
Locus coeruleus
  clonidine required to re-suppress firing: 1280 micrograms/kg of body weight
  dose that reinstated firing: reinstated firing at the same level
mouse
  Minimal effective doses (MED) MLHS (i.p.): 10 mg/kg of body weight
DBA-2 mice
  Minimal effective doses (MED) AS (i.p.): 5 mg/kg of body weight
[2]
  IC50: 34 nM

## c1ccc2c(c1)OCC(C1=NCCN1)O2 (centres unmarked) [RX 781094, 2-[2-(1,4-benzodioxanyl)]-22imidazoline hydrochloride, reference compound]
[1]; s.c., 30 minutes before clonidine 0.01 mg/kg i.p., rats, activity counts for 20 minutes
  Minimal effective doses (MED) CH (s.c.): 0.03 mg/kg of body weight
DBA-2 mice
  Minimal effective doses (MED) AS (i.p.): 2.5 mg/kg of body weight

## Clc1cccc(Cl)c1N=C1NCCN1 [Clonidine, reference compound]
[1]; i.p., rats, pilot studies
  lowest dose that consistently produced a statistically significant reduction in motor activity: 0.01 mg/kg of body weight
DBA-2 mice; 0.4 mg/kg of body weight, i.p., 30 minutes prior to auditory stimulation
  mice protected from audiogenic seizures: 100%

## COC(=O)[C@@H]1[C@H]2C[C@H]3c4[nH]c5ccccc5c4CCN3C[C@@H]2CC[C@@H]1O [yohimbine, reference compound]
Locus coeruleus
  clonidine required to re-suppress firing: 160 micrograms/kg of body weight
  dose that reinstated firing: 2.0 mg/kg of body weight

## Fc1cccc2c1OC(C1=NCCN1)CC2 (centres unmarked) [Example 3e, 2-(2-Imidazolin-2-yl)-8-fluorochroman]
mouse
  Minimal effective doses (MED) MLHS (i.p.): 30 mg/kg of body weight
DBA-2 mice
  Minimal effective doses (MED) AS (i.p.): ~3* mg/kg of body weight
[2]
  IC50: 53.5 nM

## Fc1cccc2c1CCC(C1=NCCN1)O2 (centres unmarked) [Example 2e, 2-(2-Imidazolin-2-yl)-5-fluorochroman]
[1]; rat, in vivo
  Minimal effective doses (MED) CH (s.c.): 0.5 mg/kg of body weight
Locus coeruleus
  dose that reinstated firing: reinstated firing at the same level
mouse
  Minimal effective doses (MED) MLHS (i.p.): 30 mg/kg of body weight
DBA-2 mice
  Minimal effective doses (MED) AS (i.p.): 1 mg/kg of body weight
[2]
  IC50: 3.8 nM
